Legend:
[1] = test system: ID188 patient-derived PDAC 2D line (pre-FOLFIRINOX); assay: normalised area under dose-response curve (viability relative to DMSO, 7 doses up to 10 µM) (fraction (AUC)); higher = less sensitive (more viability retained); settings: 72 h; top dose: 10 µM
How it was run: (§1)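 A robot plated 1,500–3,000 cells/well of patient-derived 2D PDAC cells, outgrown from organoids, into 96-well plates, followed by overnight incubation at 37°C, 5% CO2. The cells were exposed for 72 h to SelleckChem library compounds at seven 3-fold-diluted concentrations up to 10 µM, and CellTiter-Glo luminescence was read after 10 min. Area under the dose-response curve came from the GRmetrics R package, with viability normalised to control wells.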

[2] = test system: ID211 patient-derived PDAC 2D line (post-FOLFIRINOX); assay: as above; settings: 72 h; top dose: 10 µM
How it was run: as §1

Row | SMILES | normalised area under dose-response curve [1] | normalised area under dose-response curve [2]
1 | Nc1cc(F)ccc1NC(=O)/C=C/c1cnn(C/C=C/c2ccccc2)c1 [RGFP966] | 0.911 | 0.779
2 | Nc1[nH]nc2nnc(-c3c(-c4ccccc4)nn4ccccc34)cc12 | 0.847 | 0.849
3 | COc1cc([C@@H]2c3cc4c(cc3[C@@H](O[C@@H]3O[C@@H]5CO[C@@H](C)O[C@H]5[C@H](O)[C@H]3O)[C@H]3COC(=O)[C@H]23)OCO4)cc(OC)c1O [Etoposide] | 0.946 | 0.853
4 | C=CCNc1ncnc2ccc(Br)cc12 [SMER28] | 0.997 | 0.825
5 | CNC(=O)[C@H](Cc1c[nH]c2ccccc12)NC(=O)[C@@H](CC(=O)NO)CC(C)C [Ilomastat (GM6001, Galardin)] | 1.05 | 0.809
6 | O=C(c1ccc(C(=O)N2CCC(N3CCCC3)CC2)c(Nc2ccccc2)c1)N1CCC(N2CCCC2)CC1 [UNC1215] | 0.931 | 0.951
7 | CN(C)C/C=C/C(=O)Nc1cc2c(Nc3ccc(F)c(Cl)c3)ncnc2cc1O[C@H]1CCOC1 [Afatinib (BIBW2992) Dimaleate] | 0.855 | 0.58
8 | Oc1nc(-c2ccc(C(F)(F)F)cc2)nc2c1CSCC2 [XAV-939] | 0.89 | 0.928
9 | C[C@@H]1CN(CC(=O)Nc2ccc3c(c2)Cc2cccc(-c4cc(=O)cc(N5CCOCC5)o4)c2S3)C[C@H](C)O1 | 0.936 | 0.842
10 | O=C(O)c1ccc(O)c2ncccc12 [IOX1] | 0.95 | 0.871
11 | Cc1cccc(-c2nn3c(c2-c2ccnc4ccc(C(N)=O)cc24)CCC3)n1 | 0.968 | 0.965
12 | Nc1ncn([C@@H]2O[C@H](CO)[C@@H](O)[C@H]2O)c(=O)n1 [Azacitidine] | 0.855 | 0.977
13 | CCN1CCN(Cc2ccc(C(=O)Nc3ccc(C)c(Oc4ccc5c(c4)CC(=O)N5)c3)cc2C(F)(F)F)CC1 [DDR1-IN-1] | 0.934 | 0.908
14 | O=C(Nc1cccnc1)N1CCC(Cc2cccc(Oc3ccc(C(F)(F)F)cn3)c2)CC1 [PF-3845] | 0.905 | 0.912
15 | CC(=O)Nc1cccc(-n2c(=O)n(C3CC3)c(=O)c3c(Nc4ccc(I)cc4F)n(C)c(=O)c(C)c32)c1 | 0.553 | 0.197
16 | CC(C)Oc1ccc(C(=O)N[C@H](CNC(=O)CN(C)C)Cc2ccc(-c3cn4cccc([C@H](C)O)c4n3)cc2)cc1Cl | 0.64 | 0.709
17 | CNC(=O)c1cc(Oc2ccc(NC(=O)Nc3ccc(Cl)c(C(F)(F)F)c3)c(F)c2)ccn1 [Regorafenib (BAY 73-4506)] | 0.775 | 0.936
18 | CC(C)N(CCCNC(=O)Nc1ccc(C(C)(C)C)cc1)C[C@H]1O[C@@H](n2cc(Br)c3c(N)ncnc32)[C@H](O)[C@@H]1O [SGC 0946] | 0.94 | 0.809
19 | CNC(=O)c1nn(C)c2c1C(C)(C)Cc1cnc(Nc3ccc(N4CCN(C)CC4)cc3)nc1-2 | 0.776 | 0.783
20 | CC(c1cc2ccccc2s1)N(O)C(N)=O (stereo not given) [Zileuton] | 0.817 | 0.859
21 | N#Cc1ccc(-c2csc(NN=C3CCCC3)n2)cc1 [Remodelin] | 0.941 | 0.854
22 | O=c1cc(-c2cccc3c2Sc2ccccc2S3)oc(N2CCOCC2)c1 | 0.945 | 0.834
23 | CC1=C(/C=C/C(C)=C/C=C/C(C)=C/C(=O)O)C(C)(C)CCC1 [Tretinoin] | 1.12 | 0.841
24 | CNC(=O)c1cc(Oc2ccc(NC(=O)Nc3cc(C(C)(C)C)nn3-c3ccc4ncccc4c3)c(F)c2)ccn1 [Rebastinib (DCC-2036)] | 0.853 | 0.885
25 | CC(C)C[C@H](NC(=O)[C@H](CCc1ccccc1)NC(=O)CN1CCOCC1)C(=O)N[C@@H](Cc1ccccc1)C(=O)N[C@@H](CC(C)C)C(=O)[C@@]1(C)CO1 [Carfilzomib (PR-171)] | 0.126 | 0.0368
26 | Cc1ccc(-c2cc(C(F)(F)F)nn2-c2ccc(S(N)(=O)=O)cc2)cc1 [Celecoxib] | 0.935 | 0.892
27 | Cc1cnc(-c2ccccc2C(C)C)nc1NCc1ccc(-n2ccnn2)cc1 [ML323] | 0.932 | 0.871
28 | CCC(CC)CC1(C(=O)Nc2ccccc2SC(=O)C(C)C)CCCCC1 | 0.929 | 0.859

Row | SMILES | normalised area under dose-response curve [1] | normalised area under dose-response curve [2]
29 | Cc1nc(Nc2n[nH]c3c2CN(C(=O)N[C@H](CN(C)C)c2ccccc2)C3(C)C)c2sccc2n1 | 0.578 | 0.551
30 | NS(=O)(=O)NCCNc1nonc1/C(=N/O)Nc1ccc(F)c(Br)c1 | 0.924 | 0.909
31 | CC(=O)Nc1nc(C)c(-c2ccc(Cl)c(S(=O)(=O)NCCO)c2)s1 [PIK-93] | 0.927 | 0.807
32 | Cc1cc(OCc2nnc(SC3CCCC3)n2-c2cccnc2)ccc1-c1ccc(S(C)(=O)=O)cc1 [NMS-873] | 0.8 | 0.406
33 | CCCS(=O)(=O)Nc1ccc(F)c(C(=O)c2c[nH]c3ncc(-c4ccc(Cl)cc4)cc23)c1F [Vemurafenib (PLX4032, RG7204)] | 0.813 | 0.883
34 | CN1CCN(c2ccc(-c3ccncc3-c3cc(F)c(O)c(F)c3)cc2)CC1 [LJH685] | 0.943 | 0.83
35 | CNC(=O)c1cc(Oc2ccc3nc(N[C@@H]4CCCC[C@H]4O)sc3c2)ccn1 [BLZ945] | 0.905 | 0.914
36 | CNC(=O)c1ccccc1Sc1ccc2c(/C=C/c3ccccn3)n[nH]c2c1 [Axitinib] | 0.898 | 0.857
37 | O=C(/C=C/c1ccc2ccccc2n1)c1ccncc1 [PFK15] | 0.911 | 0.778
38 | Clc1ccc(C(c2c[nH]c3ccccc23)c2c[nH]c3ccccc23)cc1 [C-DIM12] | 0.92 | 0.897
39 | Cc1ccc(NC(=O)c2cccc(C(C)(C)C#N)c2)cc1Nc1ccc2ncn(C)c(=O)c2c1 [AZ 628] | 0.898 | 0.634
40 | Cc1sc2c(c1C)C(c1ccc(Cl)cc1)=N[C@@H](CC(=O)Nc1ccc(O)cc1)c1nnc(C)n1-2 [OTX015] | 0.817 | 0.631
41 | COc1ccccc1C(=O)Nc1cc2c(cc1N1CCCC1)n(C)c(=O)n2C [PFI-4] | 0.955 | 0.787
42 | Clc1ccc(NN=C(c2ccccc2)c2ccccn2)nc1 [JIB-04] | 0.641 | 0.662
43 | Cc1ccc(NCCCc2ccccc2)c(N)c1 [JSH-23] | 0.97 | 0.79
44 | Cc1cc(-c2nc(-c3ccc(OC(F)(F)F)cc3)no2)nn1Cc1ccnc(N2CCN(C3CC3)CC2)c1 [BAY 87-2243] | 0.574 | 0.794
45 | O=C(Cc1ccc(-c2ccc(OCCN3CCOCC3)cc2)cn1)NCc1ccccc1 [KX2-391] | 0.624 | 0.508
46 | Cc1ncc(Cl)cc1NCc1ccc(C(=O)N[C@@H](CC2CCCC2)C(=O)NC2CC2)s1 | 0.923 | 0.865
47 | COc1cc2c(cc1OCCCN1CCCC1)N=C(N)C21CCC1 [A-366] | 0.983 | 0.895
48 | NC(=O)C1CCCc2c1[nH]c1ccc(Cl)cc21 (stereo not given) [Selisistat (EX 527)] | 0.971 | 0.997
49 | Cc1c(CN2CCN(C(=O)[C@H](C)O)CC2)sc2c(N3CCOCC3)nc(-c3cnc(N)nc3)nc12 [Apitolisib (GDC-0980, RG7422)] | 0.606 | 0.54
50 | CCN1C(=O)CNc2ncc(-c3ccc(-c4nc[nH]n4)nc3C)nc21 [CC-115] | 0.718 | 0.7
51 | CC(C)c1cc(C(=O)N2Cc3ccc(CN4CCN(C)CC4)cc3C2)c(O)cc1O | 0.665 | 0.458
52 | CCC(C)SSc1ncc[nH]1 (stereo not given) [PX-12] | 0.985 | 0.903
53 | Cc1cc(C)c(CNC(=O)c2cc(-c3ccc(CN4CCOCC4)cc3)cc3c2cnn3C2CCCC2)c(=O)[nH]1 | 0.896 | 0.812
54 | COc1ccccc1S(=O)(=O)Nc1ccc2c(c1)CN(C)C(=O)N2 | 0.921 | 0.753
55 | CCn1cc(-c2cccc(C(F)(F)F)c2)c2sc(C(=N)NC3CCS(=O)(=O)CC3)cc2c1=O [I-BRD9] | 1.01 | 0.833
